From patent publication US20100311694A1, “Set of Geldanamycin Derivatives and Their Preparation Methods” (Institute of Medicinal Biotechnology, Chinese Academy of …, priority 2008, published 2010)

Tests used:
[1] = tested on: HBV; test: Anti-HBV activity (HBV DNA in cell lysate, spot hybridization); type: cell-based; settings: HBV DNA content of the cells, reagent solution changed every 4 days
Procedure: Test Procedure for Anti-HBV Activity
Using cell culture method, the preparation of the cells to be tested (100,000 cell's/mL) is inoculated into cell culture plate in 100 μl each well and the cells are cultured 24 h at 37° C. in 5% CO2. Tests are carried out when the cells grow into a monolayer. The target compounds as well as the controls are prepared into a series of solutions of appropriate concentrations using the culture medium and are added into 96 well culture plate respectively in 4 wells per one concentration. Then the reagent solution in each well is changed into the fresh reagent solution with the same concentration every 4 days. A cell control without reagent treatment is simultaneously is set up. The observation index is based upon the pathological changes of the cells by observing the degrees of the pathological changes of the cells under microscope every 8 days. […] Cell control without drug treatment is simultaneously is set up. The reagent solution or control medium in each well is changed into the fresh reagent solution or fresh medium respectively every 4 days. After cytolysis of the cells, HBV DNA is extracted from the cell lysis solution according to the molecular cloning technical procedure. The spots of different samples are hybridized and the A values of different hybridized spots are measured using autoradiograghic technique. The HBV DNA contents in the cell control as well as in the drug treated samples are calculated using the regression equations obtained from the standard curves to obtain half effective concentration values, the results are shown in Table 1.

[2] = tested on: HIV-1; test: Anti HIV-1 activity (HIV-1 P24 antigen in cell cultures); type: cell-based; settings: 4 days after addition of the reagents
Procedure: Test Procedure of Anti HIV-1 Activity
8 reagent solutions of different diluted concentrations and positive control solutions are added into cell cultures in 96 well plate respectively. The sample of each diluted solutions is made duplicately and a control cell sample is also is set up. 100 μl of cell sample at a concentration of 2×10^5cells/ml is inoculated into the wells containing reagent in the plate. The cells samples are cultured in a saturated humidity culture chamber (at a 5% CO2 atmosphere) at 37° C. The pathological changes of cells are observed daily.

| SMILES | Activity of HBV inhibition IC50 [1] | Activity of HIV inhibition IC50 [2] | Activity of HBV inhibition IC50, μg/ml [1] |
| --- | --- | --- | --- |
| COC1C=CC=C(C)C(=O)NC2=CC(=O)C(NCCOS(=O)(=O)O)=C(CC(C)CC(OC)C(O)C(C)C=C(C)C1OC(N)=O)C2=O (stereo not shown) [GM-W17] | 10.3 µg/mL | 23.47 µg/mL |  |
| COC1C=CC=C(C)C(=O)NC2=CC(=O)C(NC(CO)C(C)C)=C(CC(C)CC(OC)C(O)C(C)C=C(C)C1OC(N)=O)C2=O (stereo not shown) [GM-W58] | 0.64 µg/mL | 1.39 µg/mL |  |
| COC1C=CC=C(C)C(=O)NC2=CC(=O)C(NCCN3CCCCC3)=C(CC(C)CC(OC)C(O)C(C)C=C(C)C1OC(N)=O)C2=O (stereo not shown) [GM-AEPD, 17-(2′-(1″-azacyclohexyl-1″-)ethylamino)-17-demethoxy geldanamycin] | 0.08 µg/mL | <0.01 µg/mL |  |
| COC1C=CC=C(C)C(=O)NC2=CC(=O)C(Nc3cnc(C)c(C)n3)=C(CC(C)CC(OC)C(O)C(C)C=C(C)C1OC(N)=O)C2=O (stereo not shown) [GM-W57] | 8.0 µg/mL | 13.76 µg/mL |  |
| CCN1CCCC1CNC1=C2C[C@H](C)C[C@H](OC)[C@H](O)[C@@H](C)/C=C(\C)[C@@H](OC(N)=O)[C@@H](OC)/C=C/C=C(\C)C(=O)NC(=CC1=O)C2=O (stereo partly shown) [GM-228, 17-(2″-(N-ethylpyrrolidinyl)-methylamino)-17-demethoxy geldanamycin] |  | 0.009 µg/mL | 0/01 |
| COC1C=CC=C(C)C(=O)NC2=CC(=O)C(NCCN3CCOCC3)=C(CC(C)CC(OC)C(O)C(C)C=C(C)C1OC(N)=O)C2=O (stereo not shown) [GM-APML, 17-(2′-(1″-oxa-4″-azacyclohexyl-1″-)ethylamino)-17-demethoxy geldanamycin] | 0.064 µg/mL | <0.01 µg/mL |  |
| COC1C=CC=C(C)C(=O)NC2=CC(=O)C(NC3CCc4ccccc43)=C(CC(C)CC(OC)C(O)C(C)C=C(C)C1OC(N)=O)C2=O (stereo not shown) [GM-W21] | 10.4 µg/mL | 58.97 µg/mL |  |
| COC1C=CC=C(C)C(=O)NC2=CC(=O)C(NCC3CCCNC3)=C(CC(C)CC(OC)C(O)C(C)C=C(C)C1OC(N)=O)C2=O (stereo not shown) [GM-W23] | 0.32 µg/mL | 0.46 µg/mL |  |
| CCN(CCNC1=C2CC(C)CC(OC)C(O)C(C)C=C(C)C(OC(N)=O)C(OC)C=CC=C(C)C(=O)NC(=CC1=O)C2=O)c1cccc(C)c1 (stereo not shown) [GM-W30] | 5.6 µg/mL | 10.89 µg/mL |  |
| COC1C=CC=C(C)C(=O)NC2=CC(=O)C(NC3CCN(Cc4ccccc4)CC3)=C(CC(C)CC(OC)C(O)C(C)C=C(C)C1OC(N)=O)C2=O (stereo not shown) [GM-ABPD, 17-(4′-benzyl-4′-azacyclohexylamino)-17-demethoxy geldanamycin] | 0.32 µg/mL | <0.03 µg/mL |  |
| COC1C=CC=C(C)C(=O)NC2=CC(=O)C(NCCCC(=O)OCC=C(C)CCC=C(C)CCC=C(C)C)=C(CC(C)CC(OC)C(O)C(C)C=C(C)C1OC(N)=O)C2=O (stereo not shown) [GM-W85] | 0.01 µg/mL | 0.78 µg/mL |  |
| CO[C@H]1/C=C/C=C(\C)C(=O)NC2=CC(=O)C(NC[C@H]3CCCO3)=C(C[C@H](C)C[C@H](OC)[C@H](O)[C@@H](C)/C=C(\C)[C@H]1OC(N)=O)C2=O [THFM(R)-GM, 2′R-17-tetrahydrofurfurylamino-17-demethoxy geldanamycin] | 0.01 µg/mL | 0.05 µg/mL |  |
| CCCCCC(NC1=C2CC(C)CC(OC)C(O)C(C)C=C(C)C(OC(N)=O)C(OC)C=CC=C(C)C(=O)NC(=CC1=O)C2=O)P(=O)(O)O (stereo not shown) [GM-W62] | 0.89 µg/mL | 1.76 µg/mL |  |
| COC1C=CC=C(C)C(=O)NC2=CC(=O)C(NNC(=O)c3ccco3)=C(CC(C)CC(OC)C(O)C(C)C=C(C)C1OC(N)=O)C2=O (stereo not shown) [GM-W4] | 3.2 µg/mL | 0.33 µg/mL |  |
| COC1C=CC=C(C)C(=O)NC2=CC(=O)C(NNC(=O)c3ccco3)=C(CC(C)CC(OC)C(O)C(C)C=C(C)C1OC(N)=O)C2=O (stereo not shown) [GM-W83] | 3.2 µg/mL | 3.56 µg/mL |  |
| COC1C=CC=C(C)C(=O)NC2=CC(=O)C(NCCS(=O)(=O)O)=C(CC(C)CC(OC)C(O)C(C)C=C(C)C1OC(N)=O)C2=O (stereo not shown) [GM-W5] | 6.4 µg/mL | 10.26 µg/mL |  |
| COC(CNC1=C2CC(C)CC(OC)C(O)C(C)C=C(C)C(OC(N)=O)C(OC)C=CC=C(C)C(=O)NC(=CC1=O)C2=O)OC (stereo not shown) [GM-W12] | 3.2 µg/mL | 0.46 µg/mL |  |
| COC1C=CC=C(C)C(=O)NC2=CC(=O)C(NCCCN3CCOCC3)=C(CC(C)CC(OC)C(O)C(C)C=C(C)C1OC(N)=O)C2=O (stereo not shown) [GM-W46] | 1.49 µg/mL | 1.32 µg/mL |  |

| SMILES | Activity of HBV inhibition IC50 [1] | Activity of HIV inhibition IC50 [2] | Activity of HBV inhibition IC50, μg/ml [1] |
| --- | --- | --- | --- |
| COC1C=CC=C(C)C(=O)NC2=CC(=O)C(NN3CCN(C)CC3)=C(CC(C)CC(OC)C(O)C(C)C=C(C)C1OC(N)=O)C2=O (stereo not shown) [GM-W35] | 4.36 µg/mL | 3.48 µg/mL |  |
| COC1C=CC=C(C)C(=O)NC2=CC(=O)C(NCCC3OCCO3)=C(CC(C)CC(OC)C(O)C(C)C=C(C)C1OC(N)=O)C2=O (stereo not shown) [GM-W28] | 0.10 µg/mL | 0.21 µg/mL |  |
| COC1C=CC=C(C)C(=O)NC2=CC(=O)C(NCCc3ccccn3)=C(CC(C)CC(OC)C(O)C(C)C=C(C)C1OC(N)=O)C2=O (stereo not shown) [GM-W18] | 50.4 µg/mL | 33.41 µg/mL |  |
| CCN1CCC[C@H]1CNC1=C2C[C@H](C)C[C@H](OC)[C@H](O)[C@@H](C)/C=C(\C)[C@@H](OC(N)=O)[C@@H](OC)/C=C/C=C(\C)C(=O)NC(=CC1=O)C2=O [GM-206S, 17-(2″S-2″-(N-ethylpyrrolidinyl)-methylamino)-17-demethoxy geldanamycin] | 0.064 µg/mL | 0.01 µg/mL |  |
| COC1C=CC=C(C)C(=O)NC2=CC(=O)C(NC3CCN(c4ccncc4)CC3)=C(CC(C)CC(OC)C(O)C(C)C=C(C)C1OC(N)=O)C2=O (stereo not shown) [GM-W38] | 0.64 µg/mL | 1.59 µg/mL |  |
| COC1C=CC=C(C)C(=O)NC2=CC(=O)C(NC(C)Cc3c[nH]c4ccccc34)=C(CC(C)CC(OC)C(O)C(C)C=C(C)C1OC(N)=O)C2=O (stereo not shown) [GM-W89] | 2.36 µg/mL | 1.68 µg/mL |  |
| COC1C=CC=C(C)C(=O)NC2=CC(=O)C(NCC3OCCO3)=C(CC(C)CC(OC)C(O)C(C)C=C(C)C1OC(N)=O)C2=O (stereo not shown) [GM-W29] | 6.4 µg/mL | 0.67 µg/mL |  |
| COC1C=CC=C(C)C(=O)NC2=CC(=O)C(NCCc3cccnc3)=C(CC(C)CC(OC)C(O)C(C)C=C(C)C1OC(N)=O)C2=O (stereo not shown) [GM-W32] | 6.4 µg/mL | 0.48 µg/mL |  |
| COC1C=CC=C(C)C(=O)NC2=CC(=O)C(NC3CC(C)(C)N(C)C(C)(C)C3)=C(CC(C)CC(OC)C(O)C(C)C=C(C)C1OC(N)=O)C2=O (stereo not shown) [GM-W69] | 10.8 µg/mL | 22.23 µg/mL |  |
| COC1C=CC=C(C)C(=O)NC2=CC(=O)C(NCCN3CCCC3)=C(CC(C)CC(OC)C(O)C(C)C=C(C)C1OC(N)=O)C2=O (stereo not shown) [GM-W52] | 0.32 µg/mL | 0.65 µg/mL |  |
| COC1C=CC=C(C)C(=O)NC2=CC(=O)C(NC(C)(C)CO)=C(CC(C)CC(OC)C(O)C(C)C=C(C)C1OC(N)=O)C2=O (stereo not shown) [GM-W7] | 8.0 µg/mL | 9.89 µg/mL |  |
| COC1C=CC=C(C)C(=O)NC2=CC(=O)C(NCCC3CC(CC(=O)OC(C)(C)C)OC(C)(C)O3)=C(CC(C)CC(OC)C(O)C(C)C=C(C)C1OC(N)=O)C2=O (stereo not shown) [GM-W79] | 3.2 µg/mL | 1.47 µg/mL |  |
| COC1C=CC=C(C)C(=O)NC2=CC(=O)C(NCCc3c[nH]c4ccccc34)=C(CC(C)CC(OC)C(O)C(C)C=C(C)C1OC(N)=O)C2=O (stereo not shown) [GM-W90] | 0.93 µg/mL | 1.23 µg/mL |  |
| COC1C=CC=C(C)C(=O)NC2=CC(=O)C(NC(CO)c3cc(Cl)cc(Cl)c3)=C(CC(C)CC(OC)C(O)C(C)C=C(C)C1OC(N)=O)C2=O (stereo not shown) [GM-W81] | 2.3 µg/mL | 2.46 µg/mL |  |
| COC1C=CC=C(C)C(=O)NC2=CC(=O)C(NC(C)(CO)CO)=C(CC(C)CC(OC)C(O)C(C)C=C(C)C1OC(N)=O)C2=O (stereo not shown) [GM-W6] | 1.32 µg/mL | 1.47 µg/mL |  |
| COC1C=CC=C(C)C(=O)NC2=CC(=O)C(NCCCN(CCO)CCO)=C(CC(C)CC(OC)C(O)C(C)C=C(C)C1OC(N)=O)C2=O (stereo not shown) [GM-W43] | 0.64 µg/mL | 0.87 µg/mL |  |
| COC1C=CC=C(C)C(=O)NC2=CC(=O)C(NCC(C)(C)CO)=C(CC(C)CC(OC)C(O)C(C)C=C(C)C1OC(N)=O)C2=O (stereo not shown) [GM-W16] | 0.064 µg/mL | 0.43 µg/mL |  |
